No end group written: not given here.

Here are results for two compounds from paper PMC9254247, “Dual-sensitive antibacterial peptide nanoparticles prevent dental caries” (Theranostics, 2022).

The test system of data set [1] is S. mutans UA159 infection of teeth. Put plainly: In vivo rodent model simulating severe childhood caries. Set-up: species or system Sprague-Dawley rat pups. The conditions noted are these: for body weights vs control: after 35 days of topical treatment, 100 μM; for H&E staining of gingival, palatal and gastric tissues: caries study, Figure S12. The source says:
For each patient, written permission form was reviewed and signed. […]
In vivo rodent model simulating severe childhood caries. All the animal studies were approved by the Institutional Animal Care and Use Committee (IACUC) of Hunan Normal University, and the National Institutes of Health guidelines for the performance of animal experiments were followed. 15 days -old female Sprague– Dawley rat pups were purchased with their dams from Slac & Jingda Corporation of laboratory animals, Changsha, China. All animals should be checked for the pathogen […]
infections especially for the S.mutans by plating oral swabs on mitis salivarius agar plus bacitracin. The animals were then infected by mouth with S. mutans UA159 (mid-logarithmic) 4 times (once a day) by pipetting 0.1 mL of a cell suspension containing 2 × 10^8 colony-forming units into their mouths. When the infection was confirmed, all the pups were randomly placed into three treatment groups, and their teeth were treated topically once a day for a total 35 days using the swabs plus modified syringe. The concentration of CHX and pHly -1 NPs was 100 μM and the volume was 300 μ L. The three treatment groups were: (1) control (PBS, pH 4.5); (2) CHX (100 μ M, dissolve in PBS, pH 4.5); (3) pHly -1 NPs (100 μM, dissolve in PBS, pH 4.5). Each group was provided the National Institutes of Health cariogenic diet 2000 and water containing 5% sucrose. After 35 days of treatment, all animals were sacrificed and jaws were collected according the literature . Determination of caries score of the jaws was performed by a calibrated examiner who was blind for the study by using codified samples according to Lar son’s modification of Keyes’ system 11 -13. […]
The fragments were washed thoroughly, then digested and centrifuged to obtain cell pellet. The resulting pellet was resuspended in ice-cold 70 % BME for incubating 15 min and then the organoid medium was added. The composition of oral and gastric organoid medium was as follows:
Human oral organoid medium contains Advanced Dulbecco’s Modified Eagle’s Medium/F12 supplemented with penicillin/streptomycin, 10 mM HEPES, 2 mM GlutaMAX, 1×B27 supplement (Life Technologies), 1.25 mM N -acetyl-l-cysteine (Sigma-Aldrich), 10 mM Nicotinamide (Sigma-Aldrich), 50 ng/mL human EGF (PeproTech), 500 nM A83- 01(Tocris Bioscience), 10 ng/mL human FGF10
(PeproTech), 5 ng/mL human FGF2 (PeproTech), 1 μM Prostaglandin E2 (Tocris Bioscience), 3 μM CHIR 99021 (Sigma -Aldrich), 1μM Foskolin, 100 μg/mL […]
(§1) Human gastric organoid medium contains Advanced Dulbecco’s Modified Eagle’s […]
GlutaMAX,1×B27 supplement (Life Technologies), 50 ng/mL human EGF
(PeproTech), 200 ng/mL human FGF10 (PeproTech), 1.25 mM N-acetyl-l-cysteine (Sigma-Aldrich), 10 nM Gastin-l, 500 nM A83- 01 (Tocris Bioscience), 10 μM […]
Prostaglandin E2 (Tocris Bioscience), 100 ng/mL human recombinant IGF-1 (Bio Legend), 3 μM CHIR 99021 (Sigma-Aldrich), 10 mM Nicotinamide (Sigma-Aldrich).
For the organoid toxicity assay, organoids were digested into single cells. After centrifugation and washing, single cells were plated in 70 % BME and then added to 96-well plates (5 μ L/well). After that, 100 μ L organoid medium was added into the […]

The subject of data set [2] is oral microbiota and gingival, palatal and gastric tissues. Type of data set: in vivo, Kuming mice. As to conditions: for H&E staining of gingival, palatal and gastric tissues / oral microbiota diversity / ecological balance (PCoA, Chao, Shannon) / abundance of top three phyla (Bacteroidetes, Firmicutes, Proteobacteria): 0.2%, 100 μL, once per day for 7 days; for oral microbiota diversity / ecological balance (PCoA, Chao, Shannon) / abundance of top three phyla (Bacteroidetes, Firmicutes, Proteobacteria): n = 8; for abundance of top three phyla (Bacteroidetes, Firmicutes, Proteobacteria): saliva on 8th day; for tooth staining: data not shown. The source says: Toxicity tests on mice. Furthermore, 35- 40 g fe male Kuming mice were also purchased from Slac & Jingda Corporation of laboratory animals, Changsha, China to systematically evaluate the toxicity of pHly -1 NPs to oral microflora and soft tissue in mice. All animals were randomly placed into three treatment groups, and pHly-1 NPs or CHX in aqueous solution was gradually added to mice mouth once a day for seven days. Considering the concentration of CHX used in clinic is usually 0.2 %, we determined that the concentration of the pHly -1 NPs rinsed mouse’s mouth is also 0.2 % and the volume was 100 μ L. At the 8th day, saliva was drawn for oral microbiome analysis, and gingival, palatal and gastric tissues were collected for histopathological […]
Oral flora 16S rRNA sequencing. Total genomic DNA of oral samples was extracted in OE Biotech Company (Shanghai, China) using a QIAamp DNA Stool Mini Kit (Qiagen, Germantown, MD, USA). Bacterial DNA was amplified with primers […]
targeting the V3- V4 regions (50- TACGGRAGGCAGCAG- 30,
50- AGGGTATCTAATCCT-30) and the final amplicon was quantified using a Qubit dsDNA assay kit (Life Technologies, California, United States). Equal amounts of purified amplicons were pooled for subsequent sequencing by the Illumina Nova 6000 platform (Illumina, USA) (Shanghai Oebiotech Co., Ltd., Shanghai, China). The raw data were treated and processed using the QIIME software package (version 1.8.0).
The operational taxonomic units (OTUs) were generated using Vsearch software with a 97% similarity cutoff. The QIIME package and the RDP classifier (confidence threshold was 70%) were performed to select the representative read of each OTU and annotate and BLAST against the Silva database Version 123, respectively.
Furthermore, the microbial diversity in oral samples was estimated by using the alpha diversity that include Chao1 and Shannon index. The bacterial diversity between groups was compared using the Wilcoxon rank sum test.

Another data set relates to normal gastric organoids. Type of data set: cell-based, human. The conditions noted are these: 1 day.
Text: (§2) Toxicity tests on human organoid s. Organoids have been established in our lab.
(§3) Ethical approval of the study and the written consent/permission forms were obtained from Institutional Review Board (IRB) at Hunan N ormal University before the study commencement. For each patient, written permission form was reviewed and signed by themselves. According to the literature14,15, briefly, the tissue samples obtained from patients were removed excess fat or muscle tissues and cut into small fragments.
(§4) The fragments were washed thoroughly, then digested and centrifuged to obtain cell pellet. The resulting pellet was resuspended in ice-cold 70 % BME for incubating 15 min and then the organoid medium was added. The composition of oral and gastric organoid medium was as follows: […]
as §1
GlutaMAX,1×B27 supplement (Life Technologies), 50 ng/mL human EGF […]
(§5) 50- AGGGTATCTAATCCT-30) and the final amplicon was quantified using a Qubit dsDNA assay kit (Life Technologies, California, United States). […]
(§6) The operational taxonomic units (OTUs) were generated using Vsearch software with a 97% similarity cutoff. The QIIME package and the RDP classifier (confidence threshold was 70%) were performed to select the representative read of each OTU and annotate and BLAST against the Silva database Version 123, respectively. […]

The subject of data set [3] is normal oral and gastric organoids. It counts as cell-based, human.
Text: as §2, §3, §4, §5, §6

A further data set concerns normal oral organoids. Type of data set: cell-based, human. As to conditions: 1 day.
Text: as §2, §3, §4, §5, §6

In the case of `[H]/N=C(\N/C(=N/[H])NCCCCCCNC(=N)NC(=N)Nc1ccc(Cl)cc1)Nc1ccc(Cl)cc1` [CHX, chlorhexidine], in data set [1], the “body weights vs control” value was “No significant difference in body weights”; the “H&E staining of gingival, palatal and gastric tissues” value (“H&E staining of gingival” for short) is recorded as “no detectable signals for the harmful effect”. For the same compound, the “caries lesions on sulcal and smooth surfaces (Keyes' scoring, Larson's modification) vs control” value in data set [1] (topical 100 μM, 300 μL, pH 4.5, once per day, 35 days, n = 8) is listed as “alleviated severe lesions”. In addition, in data set [2], the “H&E staining of gingival” value was “epithelial cell shedding and structural damage of gastric tissue”; the “oral microbiota diversity / ecological balance (PCoA, Chao, Shannon)” value is on record as “reduced the oral microbiota diversity”; the “abundance of top three phyla (Bacteroidetes, Firmicutes, Proteobacteria)” value is reported as “significantly increased the abundance of Firmicutes species”; the tooth staining entry is “occasionally present”. In addition, the gastric organoids death result in the data set on normal gastric organoids (31.25 μM) is “about 40%”. Besides, the “concentration inducing organoid death or decreased viability” value in data set [3] is listed as ~ 20 μM. For the same compound, in the data set with normal oral organoids (15.6 μM), the oral organoid death entry was “about 60%”.

“KIWFHAMHIIAHFIAHQHLHQHL-NH2 [pHly-1 NPs]”: in data set [1], the “body weights vs control” value is on record as “No significant difference in body weights”; the “H&E staining of gingival” value is “no detectable signals for the harmful effect”. In data set [2], the “H&E staining of gingival” value was “no visible signs of harmful effects”; the “oral microbiota diversity / ecological balance (PCoA, Chao, Shannon)” value is reported as “did not disrupt the ecological balance of the microbiota”; the “abundance of top three phyla (Bacteroidetes, Firmicutes, Proteobacteria)” value is on record as “did not affect their abundance”; the tooth staining entry is on record as “not observed”. Further, in the data set with normal gastric organoids (500 μM), the “effect on gastric organoid viability” value is on record as “no obvious effect”. Moreover, the “effect on both organoids” value in data set [3] is “no apparent effect”. For the same compound, the “effect on oral organoid viability” value in the data set on normal oral organoids (500 μM) is recorded as “no apparent viability decrease”.
